Results on 6 compounds are retold here after patent US20210047304A1, “Bromodomain Inhibitors” (AbbVie Inc., priority 2016, published 2021).

The target in the first test is BRD4 (BDI_K57-E168) (Homo sapiens, UniProt O60885). Briefly: TR-FRET bromodomain binding assay, BRD4 BDI.
Settings: not given
Take `Cc1cc(F)cc(C)c1Oc1ccc(C(C)(C)O)cc1-c1cn(C)c(=O)cc1O[C@H]1CC[C@H](n2ncccc2=O)CC1` [Example 141, 2-[trans-4-({5-[2-(4-fluoro-2,6-dimethylphenoxy)-5-(2-hydroxypropan-2-yl)phenyl]-1-methyl-2-oxo-1,2-dihydropyridin-4-yl}oxy)cyclohexyl]pyridazin-3(2H)-one]: the affinity, expressed as Ki, was 4.09 µM. The compound `Cc1cc(F)cc(C)c1Oc1ccc(C(C)(C)O)cc1-c1cn(C)c(=O)cc1O[C@H]1CC[C@H](N2C(=O)N(C)C(C)(C)C2=O)CC1` [Example 142, 3-[trans-4-({5-[2-(4-fluoro-2,6-dimethylphenoxy)-5-(2-hydroxypropan-2-yl)phenyl]-1-methyl-2-oxo-1,2-dihydropyridin-4-yl}oxy)cyclohexyl]-1,5,5-trimethylimidazolidine-2,4-dione] gave a Ki of 0.94 µM. As for `Cc1cc(F)cc(C)c1Oc1ccc(C(C)(C)O)cc1-c1cn(C)c(=O)cc1O[C@H]1CC[C@H](n2cccnc2=O)CC1` [Example 143, 1-[trans-4-({5-[2-(4-fluoro-2,6-dimethylphenoxy)-5-(2-hydroxypropan-2-yl)phenyl]-1-methyl-2-oxo-1,2-dihydropyridin-4-yl}oxy)cyclohexyl]pyrimidin-2(1H)-one], the inhibition constant Ki stood at 5.24 µM. On to `Cc1cc(F)cc(C)c1Oc1ccc(C(C)(C)O)cc1-c1cn(C)c(=O)cc1O[C@H]1CC[C@H](n2cnccc2=O)CC1` [Example 144, 3-[trans-4-({5-[2-(4-fluoro-2,6-dimethylphenoxy)-5-(2-hydroxypropan-2-yl)phenyl]-1-methyl-2-oxo-1,2-dihydropyridin-4-yl}oxy)cyclohexyl]pyrimidin-4(3H)-one], for which the Ki is over 13 µM.

`Cc1cc(F)cc(C)c1Oc1ccc(C(C)(C)O)cc1-c1cn(C)c(=O)cc1O[C@H]1CC[C@H](N2C(=O)N(C)C3(CC3)C2=O)CC1` [Example 145, 6-[trans-4-({5-[2-(4-fluoro-2,6-dimethylphenoxy)-5-(2-hydroxypropan-2-yl)phenyl]-1-methyl-2-oxo-1,2-dihydropyridin-4-yl}oxy)cyclohexyl]-4-methyl-4,6-diazaspiro[2.4]heptane-5,7-dione] showed an inhibitory constant (Ki) of over 13 µM.

The test is the same for the next values; noted with them: mean Ki; 12 nM His tagged BRD4 (BDI_K57-E168), 100 nM Alexa647 probe; Ki calculated from IC50, probe Kd and probe concentration.
As to “methyl [trans-4-({5-[2-(4-fluoro-2,6-dimethylphenoxy)-5-(2-hydroxypropan-2-yl)phenyl]-1-methyl-2-oxo-1,2-dihydropyridin-4-yl}oxy)cyclohexyl]methylcarbamate [Example 21]”, the inhibition constant (Ki) was 3.02 µM.
